Test results: patent US20060173015A1, “Cyclohexyldiamines as selective alpha 1a/1d adrenoreceptor antagonists for the treatment of benign prostatic hypertrophy and lower urinary tract symptoms” (priority 2004, published 2006)

Key:
[1] = system: Prostatic Intraurethral Pressure (IUP); experiment: Phenylephrine-induced prostatic IUP in an anesthetized canine model; format: in vivo; settings: anesthetized dog
Description: (§1) In-Vivo Evaluation of α1-Adrenergic Antagonists on Prostatic Intraurethral Pressure (IUP) and Mean Arterial Pressure (MAP) in an Anesthetized Canine Model
(§2) An anesthetized dog was fitted with a balloon catheter for the measurement of changes in prostatic IUP and with a non-invasive blood pressure (NIBP) cuff for determination of MAP.
(§3) The pressor effects of challenge doses (i.v.) of the α-adrenergic agonist phenylephrine upon IUP and MAP were measured before and at various time points after a single dose (i.v.) of an α-adrenergic antagonist test compound (Compound 69) of the present invention.
(§4) Each treatment group was dosed with a test compound (0.01, 0.03, 0.1 and 0.5 mg/kg) in four separate experiments. The first challenge dose of phenylephrine was administered 30 mins prior to the test compound dose and at 30 min intervals thereafter for a total time period of 5 hrs (i.e at time minus 30 mins, time plus 30 mins, 1 hr, 1.5 hrs, 2 hrs, 2.5 hrs, 3 hrs, 3.5 hrs, 4 hrs, 4.5 hrs and 5 hrs).
(§5) The animals were fasted overnight, anesthetized with propofol (4 mg/kg IV or to effect), then intubated and anesthesia maintained using inhalation isoflurane (1-2% in oxygen at a flow rate of 2 l/min) with animals breathing spontaneously.
A 7F Fogarty balloon catheter lubricated with a water-soluble jelly was inserted into the urethra and advanced into the bladder (approximately 40 cm). The balloon was inflated with approximately water (0.2 mL). The catheter was slowly withdrawn from the bladder to just past the point of first resistance from the bladder neck in order to position the balloon within the prostatic urethra. The balloon was then inflated to approximately 0.7 mL. The balloon port of the catheter was connected to a Gould Statham pressure transducer, the output of which was connected to the pressure input of a Physio Control VSM1 Patient Monitor.
(§6) A test compound was administered via the cephalic vein using an appropriately sized IV catheter (Surflo, Terumo Medical Corporation or equivalent).
(§7) Prior to test compound administration, IUP and MAP responses to an individualized dose of phenylephrine (either 10 or 15 μg/kg IV, depending on the individual animal's response) was repeated 2 to 3 times to establish a baseline response. After test compound administration, the individualized phenylephrine dose was administered to each animal at 30 minute intervals over a period of 5 hours.
(§8) Data for phenylephrine-induced changes in IUP and MAP were tabulated for each treatment group and each experiment. A mean value and standard deviation for the phenylephrine-induced changes to the effect of a test compound on IUP and MAP at each dose was calculated and tabulated for each treatment group over the length of the 5.5 hour study.

[2] = system: Mean Arterial Pressure (MAP); experiment: Phenylephrine-induced MAP in an anesthetized canine model; format: in vivo; settings: anesthetized dog
Description: as §1, §2, §3, §4, §5
Blood pressure was measured non-invasively using a Critikon 8100 monitor. An infant blood pressure cuff was placed on a forelimb. Measurements were made automatically at 1-minute intervals during recording periods. […] Care was taken to accurately correlate the time of the MAP readings with the time of the phenylephrine dose. Recording periods typically lasted from 5 minutes before phenylephrine administration to 10 minutes after. The monitor was turned off between recording periods to allow the arterial blood vessels of the forelimb to recover from repeated cuff inflations.
Because of the variability of the MAP value, several values recorded during a five minute “control” period prior to the phenylephrine challenge dose were averaged to establish a mean baseline value for measuring the phenylephrine-induced change in MAP.
MAP readings also varied during the response to the phenylephrine challenge. A visual peak MAP value, seen on the monitor at about 3 minutes after the challenge dose, was recorded and used to calculate the maximum phenylephrine induced change in MAP. Additionally, MAP values were recorded at one minute intervals and curve fitted to estimate a maximum MAP value. The curve fitted maximum value was used to confirm the visual maximum value.
as §6, §7, §8

[3] = 0.01 mg/kg i.v., 0 hrs (baseline)
[4] = 0.01 mg/kg i.v., 0.5 hrs after dose
[5] = 0.01 mg/kg i.v., 1 hrs after dose
[6] = 0.01 mg/kg i.v., 2 hrs after dose
[7] = 0.01 mg/kg i.v., 3 hrs after dose
[8] = 0.01 mg/kg i.v., 4 hrs after dose
[9] = 0.01 mg/kg i.v., 5 hrs after dose
[10] = 0.03 mg/kg i.v., 0 hrs (baseline)
[11] = 0.03 mg/kg i.v., 0.5 hrs after dose
[12] = 0.03 mg/kg i.v., 1 hrs after dose
[13] = 0.03 mg/kg i.v., 1.5 hrs after dose
[14] = 0.03 mg/kg i.v., 2 hrs after dose
[15] = 0.03 mg/kg i.v., 2.5 hrs after dose
[16] = 0.03 mg/kg i.v., 3 hrs after dose
[17] = 0.03 mg/kg i.v., 3.5 hrs after dose
[18] = 0.03 mg/kg i.v., 4 hrs after dose
[19] = 0.03 mg/kg i.v., 4.5 hrs after dose
[20] = 0.03 mg/kg i.v., 5 hrs after dose
[21] = 0.1 mg/kg i.v., 0 hrs (baseline)
[22] = 0.1 mg/kg i.v., 0.5 hrs after dose
[23] = 0.1 mg/kg i.v., 1 hrs after dose
[24] = 0.1 mg/kg i.v., 1.5 hrs after dose
[25] = 0.1 mg/kg i.v., 2 hrs after dose
[26] = 0.1 mg/kg i.v., 2.5 hrs after dose
[27] = 0.1 mg/kg i.v., 3 hrs after dose
[28] = 0.1 mg/kg i.v., 3.5 hrs after dose
[29] = 0.1 mg/kg i.v., 4 hrs after dose
[30] = 0.1 mg/kg i.v., 4.5 hrs after dose
[31] = 0.1 mg/kg i.v., 5 hrs after dose
[32] = 0.5 mg/kg i.v., 0 hrs (baseline)
[33] = 0.5 mg/kg i.v., 0.5 hrs after dose
[34] = 0.5 mg/kg i.v., 1 hrs after dose
[35] = 0.5 mg/kg i.v., 1.5 hrs after dose
[36] = 0.5 mg/kg i.v., 2 hrs after dose
[37] = 0.5 mg/kg i.v., 2.5 hrs after dose
[38] = 0.5 mg/kg i.v., 3 hrs after dose
[39] = 0.5 mg/kg i.v., 3.5 hrs after dose
[40] = 0.5 mg/kg i.v., 4 hrs after dose
[41] = 0.5 mg/kg i.v., 4.5 hrs after dose
[42] = 0.5 mg/kg i.v., 5 hrs after dose

## COc1ccc(S(=O)(=O)N[C@H]2CC[C@@H](N3CCN(c4ccccc4OCC(F)(F)F)CC3)CC2)cc1OC [Cpd 69, 3,4-Dimethoxy-N-cis-(4-{4-[2-(2,2,2-trifluoro-ethoxy)-phenyl]-piperazin-1-yl}-cyclohexyl)-benzenesulfonamide]
[1]; [3]
  IUP, normalized % of baseline (mean): 100%
[1]; [4]
  IUP, normalized % of baseline (mean): 78.1%
[1]; [5]
  IUP, normalized % of baseline (mean): 81.9%
[1]; [6]
  IUP, normalized % of baseline (mean): 83.6%
[1]; [7]
  IUP, normalized % of baseline (mean): 83.3%
[1]; [8]
  IUP, normalized % of baseline (mean): 83.0%
[1]; [9]
  IUP, normalized % of baseline (mean): 84.5%
[1]; [10]
  IUP, normalized % of baseline (mean): 100%
[1]; [11]
  IUP, normalized % of baseline (mean): 64.8%
[1]; [12]
  IUP, normalized % of baseline (mean): 64.8%
[1]; [13]
  IUP, normalized % of baseline (mean): 70.8%
[1]; [14]
  IUP, normalized % of baseline (mean): 71.1%
[1]; [15]
  IUP, normalized % of baseline (mean): 79.1%
[1]; [16]
  IUP, normalized % of baseline (mean): 81.1%
[1]; [17]
  IUP, normalized % of baseline (mean): 81.6%
[1]; [18]
  IUP, normalized % of baseline (mean): 84.8%
[1]; [19]
  IUP, normalized % of baseline (mean): 83.5%
[1]; [20]
  IUP, normalized % of baseline (mean): 83.8%
[1]; [21]
  IUP, normalized % of baseline (mean): 100%
[1]; [22]
  IUP, normalized % of baseline (mean): 39.5%
[1]; [23]
  IUP, normalized % of baseline (mean): 48.4%
[1]; [24]
  IUP, normalized % of baseline (mean): 56.3%
[1]; [25]
  IUP, normalized % of baseline (mean): 61.3%
[1]; [26]
  IUP, normalized % of baseline (mean): 67.1%
[1]; [27]
  IUP, normalized % of baseline (mean): 69.9%
[1]; [28]
  IUP, normalized % of baseline (mean): 75.2%
[1]; [29]
  IUP, normalized % of baseline (mean): 78.8%
[1]; [30]
  IUP, normalized % of baseline (mean): 74.2%
[1]; [31]
  IUP, normalized % of baseline (mean): 77.3%
[1]; [32]
  IUP, normalized % of baseline (mean): 100%
[1]; [33]
  IUP, normalized % of baseline (mean): 17.4%
[1]; [34]
  IUP, normalized % of baseline (mean): 16.1%
[1]; [35]
  IUP, normalized % of baseline (mean): 27.0%
[1]; [36]
  IUP, normalized % of baseline (mean): 29.1%
[1]; [37]
  IUP, normalized % of baseline (mean): 36.1%
[1]; [38]
  IUP, normalized % of baseline (mean): 38.8%
[1]; [39]
  IUP, normalized % of baseline (mean): 45.5%
[1]; [40]
  IUP, normalized % of baseline (mean): 46.4%
[1]; [41]
  IUP, normalized % of baseline (mean): 48.0%
[1]; [42]
  IUP, normalized % of baseline (mean): 54.4%
[2]; [3]
  MAP, normalized % of baseline (mean): 100%
[2]; [4]
  MAP, normalized % of baseline (mean): 88.2%
[2]; [5]
  MAP, normalized % of baseline (mean): 68.9%
[2]; [6]
  MAP, normalized % of baseline (mean): 83.1%
[2]; [7]
  MAP, normalized % of baseline (mean): 88.0%
[2]; [8]
  MAP, normalized % of baseline (mean): 82.0%
[2]; [9]
  MAP, normalized % of baseline (mean): 91.1%
[2]; [10]
  MAP, normalized % of baseline (mean): 100%
[2]; [11]
  MAP, normalized % of baseline (mean): 39.9%
[2]; [12]
  MAP, normalized % of baseline (mean): 40.9%
[2]; [13]
  MAP, normalized % of baseline (mean): 44.1%
[2]; [14]
  MAP, normalized % of baseline (mean): 61.0%
[2]; [15]
  MAP, normalized % of baseline (mean): 59.4%
[2]; [16]
  MAP, normalized % of baseline (mean): 59.2%
[2]; [17]
  MAP, normalized % of baseline (mean): 59.8%
[2]; [18]
  MAP, normalized % of baseline (mean): 58.4%
[2]; [19]
  MAP, normalized % of baseline (mean): 71.1%
[2]; [20]
  MAP, normalized % of baseline (mean): 90.3%
[2]; [21]
  MAP, normalized % of baseline (mean): 100%
[2]; [22]
  MAP, normalized % of baseline (mean): 45.5%
[2]; [23]
  MAP, normalized % of baseline (mean): 47.4%
[2]; [24]
  MAP, normalized % of baseline (mean): 35.0%
[2]; [25]
  MAP, normalized % of baseline (mean): 44.0%
[2]; [26]
  MAP, normalized % of baseline (mean): 54.0%
[2]; [27]
  MAP, normalized % of baseline (mean): 51.3%
[2]; [28]
  MAP, normalized % of baseline (mean): 56.4%
[2]; [29]
  MAP, normalized % of baseline (mean): 47.0%
[2]; [30]
  MAP, normalized % of baseline (mean): 73.3%
[2]; [31]
  MAP, normalized % of baseline (mean): 84.3%
[2]; [32]
  MAP, normalized % of baseline (mean): 100%
[2]; [33]
  MAP, normalized % of baseline (mean): 27.6%
[2]; [34]
  MAP, normalized % of baseline (mean): 18.4%
[2]; [35]
  MAP, normalized % of baseline (mean): 16.0%
[2]; [36]
  MAP, normalized % of baseline (mean): 18.3%
[2]; [37]
  MAP, normalized % of baseline (mean): 19.4%
[2]; [38]
  MAP, normalized % of baseline (mean): 23.8%
[2]; [39]
  MAP, normalized % of baseline (mean): 19.2%
[2]; [40]
  MAP, normalized % of baseline (mean): 32.3%
[2]; [41]
  MAP, normalized % of baseline (mean): 32.1%
[2]; [42]
  MAP, normalized % of baseline (mean): 29.4%
